Measurements taken from ChEMBL document CHEMBL1201862, “PubChem BioAssay data set” (2004).
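All cell lines were grown in 96-well plates and treated with compound for 48 hours. GI50 marks 50% less growth.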 The source made the active and inactive calls. Cut-off read from the data, not from the text of the source: active = GI50 up to about 1.1 µM and inactive = higher.

How the values were obtained:
Assay in all cases: DTP human tumour cell line panel, 48 h
PC-3 = test system: PC-3
RPMI-8226 = test system: RPMI-8226
OVCAR-5 = test system: OVCAR-5
KM12 = test system: KM12
SF-539 = test system: SF-539
RXF 393 = test system: RXF 393
Hs-578T = test system: Hs-578T
OVCAR-8 = test system: OVCAR-8
OVCAR-4 = test system: OVCAR-4
MDA-MB-435 = test system: MDA-MB-435
COLO 205 = test system: COLO 205
MDA-MB-231 = test system: MDA-MB-231
MCF7 = test system: MCF7
HOP-92 = test system: HOP-92
HCT-116 = test system: HCT-116
U-251 = test system: U-251
SR = test system: SR
786-0 = test system: 786-0
CCRF-CEM = test system: CCRF-CEM

Row | Structure (SMILES) | GI50 (PC-3) | GI50 (RPMI-8226) | GI50 (OVCAR-5) | GI50 (KM12) | GI50 (SF-539) | GI50 (RXF 393) | GI50 (Hs-578T) | GI50 (OVCAR-8) | GI50 (OVCAR-4) | GI50 (MDA-MB-435) | GI50 (COLO 205) | GI50 (MDA-MB-231) | GI50 (MCF7) | GI50 (HOP-92) | GI50 (HCT-116) | GI50 (U-251) | GI50 (SR) | GI50 (786-0) | GI50 (CCRF-CEM)
1 | Oc1cccnc1CN1CCCCC1 | > 100 µM (inactive) | > 100 µM (inactive) | > 100 µM (inactive) | > 100 µM (inactive) | > 100 µM (inactive) | > 100 µM (inactive) | > 100 µM (inactive) | > 100 µM (inactive) | > 100 µM (inactive) | > 100 µM (inactive) | > 100 µM (inactive) | > 100 µM (inactive) | > 100 µM (inactive) | > 100 µM (inactive) | > 100 µM (inactive) | > 100 µM (inactive) | > 100 µM (inactive) | > 100 µM (inactive) | 
2 | CC1C/C(=C\c2ccc(OC(=O)C(C)(C)C)cc2)C(=O)/C(=C/c2ccc(OC(=O)C(C)(C)C)cc2)C1 (centres undefined) | 72.4 µM (inactive) |  | > 100 µM (inactive) | 26.2 µM (inactive) | 39.5 µM (inactive) | 19.8 µM (inactive) | 49.3 µM (inactive) | 36 µM (inactive) | 31.4 µM (inactive) | 46.5 µM (inactive) | > 100 µM (inactive) | 59.3 µM (inactive) | 45.5 µM (inactive) | > 100 µM (inactive) | 61.2 µM (inactive) | 31 µM (inactive) | 22.3 µM (inactive) | 54.3 µM (inactive) | 2.34 µM (inactive)
3 | COc1ccc2c(=O)c3ccoc3[nH]c2c1 | > 100 µM (inactive) | > 100 µM (inactive) |  | > 100 µM (inactive) | > 100 µM (inactive) | > 100 µM (inactive) | 80.9 µM (inactive) | > 100 µM (inactive) | > 100 µM (inactive) | > 100 µM (inactive) | > 100 µM (inactive) | > 100 µM (inactive) | > 100 µM (inactive) | > 100 µM (inactive) | > 100 µM (inactive) | > 100 µM (inactive) | > 100 µM (inactive) | > 100 µM (inactive) | > 100 µM (inactive)
4 | O=C1Nc2ccc(Br)cc2/C1=N/NC(=S)Nc1ccc([N+](=O)[O-])cc1 | 7.13 µM (inactive) |  | 13.2 µM (inactive) | 5.94 µM (inactive) | 20.2 µM (inactive) | 11.8 µM (inactive) | 14.2 µM (inactive) | 6.37 µM (inactive) | 6.11 µM (inactive) | 6.41 µM (inactive) | 21.7 µM (inactive) | 16.7 µM (inactive) | 7.13 µM (inactive) | 9.77 µM (inactive) | 5.35 µM (inactive) | 7.13 µM (inactive) | 5.05 µM (inactive) | 8.91 µM (inactive) | 
5 | CC(=S)NC1C(Oc2ccc3c(C)cc(=O)oc3c2)OC(CO)C(O)C1O (centres undefined) | > 100 µM (inactive) | > 100 µM (inactive) | > 100 µM (inactive) | > 100 µM (inactive) | > 100 µM (inactive) | > 100 µM (inactive) | > 100 µM (inactive) | > 100 µM (inactive) | > 100 µM (inactive) | > 100 µM (inactive) |  | > 100 µM (inactive) | > 100 µM (inactive) | > 100 µM (inactive) | > 100 µM (inactive) | > 100 µM (inactive) | > 100 µM (inactive) | > 10 µM (inactive) | > 100 µM (inactive)
6 | CCC(c1ccc2cc(O)ccc2c1)C(C)(C)C(=O)O (centres undefined) | > 100 µM (inactive) | > 100 µM (inactive) | > 100 µM (inactive) | > 100 µM (inactive) | > 100 µM (inactive) | > 100 µM (inactive) | > 100 µM (inactive) | > 100 µM (inactive) | > 100 µM (inactive) | > 100 µM (inactive) | > 100 µM (inactive) | > 100 µM (inactive) | > 100 µM (inactive) | > 100 µM (inactive) | > 100 µM (inactive) | > 100 µM (inactive) | > 100 µM (inactive) | > 100 µM (inactive) | 
7 | CC(=O)Nc1nc(O)c2nc(C=O)cnc2n1 | > 100 µM (inactive) | > 100 µM (inactive) | > 100 µM (inactive) | > 100 µM (inactive) | > 100 µM (inactive) | > 100 µM (inactive) | > 100 µM (inactive) | > 100 µM (inactive) | > 100 µM (inactive) | > 100 µM (inactive) | > 100 µM (inactive) | > 100 µM (inactive) | > 100 µM (inactive) | > 100 µM (inactive) | > 100 µM (inactive) | > 100 µM (inactive) | > 100 µM (inactive) | > 100 µM (inactive) | 
8 | N/C(CCSCCSCC/C(N)=N\O)=N\O | > 100 µM (inactive) | > 100 µM (inactive) | > 100 µM (inactive) | > 100 µM (inactive) | > 100 µM (inactive) | > 100 µM (inactive) | > 100 µM (inactive) |  | > 100 µM (inactive) | > 100 µM (inactive) | > 100 µM (inactive) | > 100 µM (inactive) | > 100 µM (inactive) | > 100 µM (inactive) | > 100 µM (inactive) | > 100 µM (inactive) | > 100 µM (inactive) | > 100 µM (inactive) | > 100 µM (inactive)
9 | OC(C/C(=N\N1CCCCC1)c1cccs1)(C(F)(F)F)C(F)(F)F | > 10 µM (inactive) | > 10 µM (inactive) |  | > 10 µM (inactive) | > 10 µM (inactive) | > 10 µM (inactive) | > 10 µM (inactive) | > 10 µM (inactive) | > 10 µM (inactive) | > 10 µM (inactive) | > 10 µM (inactive) | > 10 µM (inactive) | > 10 µM (inactive) | > 10 µM (inactive) | > 10 µM (inactive) | > 10 µM (inactive) | > 10 µM (inactive) | > 10 µM (inactive) | > 10 µM (inactive)
10 | O=C(CCCN1CCC2(CC1)CC(=O)N(N1CCCCCC1)C2=O)c1ccccc1 | > 100 µM (inactive) | > 100 µM (inactive) | > 100 µM (inactive) |  | > 100 µM (inactive) | > 100 µM (inactive) | > 100 µM (inactive) | > 100 µM (inactive) | > 100 µM (inactive) | > 100 µM (inactive) | > 100 µM (inactive) | > 100 µM (inactive) | > 100 µM (inactive) | > 100 µM (inactive) | > 100 µM (inactive) | > 100 µM (inactive) | 14.2 µM (inactive) | > 100 µM (inactive) | > 100 µM (inactive)
11 | CN(C)c1ccc(/C=C(\NC(=O)c2ccccc2)C(=O)NCC(=O)O)cc1 | > 100 µM (inactive) | > 100 µM (inactive) | > 100 µM (inactive) | > 100 µM (inactive) | > 100 µM (inactive) | > 100 µM (inactive) | > 100 µM (inactive) | > 100 µM (inactive) |  | > 100 µM (inactive) | > 100 µM (inactive) | > 100 µM (inactive) | > 100 µM (inactive) | > 100 µM (inactive) | > 100 µM (inactive) | > 100 µM (inactive) | > 100 µM (inactive) | > 100 µM (inactive) | > 100 µM (inactive)
12 | Cc1ccc2nc(-c3ccc(-n4c(C)nc(=O)c(-c5ccc(F)cc5)c4C)cc3)sc2c1 | 12.4 µM (inactive) | 4.06 µM (inactive) | 19.3 µM (inactive) | 17.3 µM (inactive) |  | 9.75 µM (inactive) | 25.9 µM (inactive) | 17.5 µM (inactive) | 17.6 µM (inactive) | 15.1 µM (inactive) | 4.97 µM (inactive) | 14.1 µM (inactive) | 13.3 µM (inactive) | 17.6 µM (inactive) | 11.9 µM (inactive) | 15.5 µM (inactive) | 6.12 µM (inactive) | 13.6 µM (inactive) | 13 µM (inactive)
13 | O=S(=O)(c1ccccc1)C(c1ccc2ccccc2n1)S(=O)(=O)c1ccccc1 | > 100 µM (inactive) | > 100 µM (inactive) | > 100 µM (inactive) | > 100 µM (inactive) | > 100 µM (inactive) | > 100 µM (inactive) | > 100 µM (inactive) | > 100 µM (inactive) | 55.6 µM (inactive) | > 10 µM (inactive) | > 100 µM (inactive) | > 100 µM (inactive) | > 100 µM (inactive) | > 100 µM (inactive) | > 100 µM (inactive) | > 100 µM (inactive) | > 100 µM (inactive) | > 100 µM (inactive) | 
14 | N#C/C(=C\NC(=S)c1ccncc1)c1nc2ccccc2s1 | > 100 µM (inactive) | > 100 µM (inactive) | > 100 µM (inactive) | > 100 µM (inactive) | > 100 µM (inactive) | > 100 µM (inactive) | > 100 µM (inactive) | > 100 µM (inactive) | > 100 µM (inactive) | > 100 µM (inactive) | > 100 µM (inactive) | 39.6 µM (inactive) | 76.9 µM (inactive) | > 100 µM (inactive) | > 100 µM (inactive) | 98.4 µM (inactive) | 74.6 µM (inactive) | > 100 µM (inactive) | 
15 | COc1cc2c(c3c1c(=O)c1ccccc1n3C)C=C([N+](=O)[O-])C(C)(C)O2 | > 100 µM (inactive) | > 31.6 µM (inactive) |  | > 100 µM (inactive) | 1.36 µM (inactive) | 0.132 µM (active) | 25.6 µM (inactive) | 0.532 µM (active) | > 100 µM (inactive) | 0.0931 µM (active) | 0.0253 µM (active) | 1.08 µM (active) | 0.358 µM (active) | 0.431 µM (active) | 0.239 µM (active) | 26.8 µM (inactive) | 0.124 µM (active) | 0.328 µM (active) | 0.468 µM (active)
